Test results as given in patent US9067894B1, “Compound, composition, and method of activating GIRK potassium channel and use of same for treating conditions of interest” (Vanderbilt University, priority 2013, dated 2015).

Biological target: T1, GIRK2/3 (Homo sapiens, UniProt P48051+Q92806)
T1 construct: expressed in transfected cells; host or cells: HEK-293
T1 sequence (P48051 1-423): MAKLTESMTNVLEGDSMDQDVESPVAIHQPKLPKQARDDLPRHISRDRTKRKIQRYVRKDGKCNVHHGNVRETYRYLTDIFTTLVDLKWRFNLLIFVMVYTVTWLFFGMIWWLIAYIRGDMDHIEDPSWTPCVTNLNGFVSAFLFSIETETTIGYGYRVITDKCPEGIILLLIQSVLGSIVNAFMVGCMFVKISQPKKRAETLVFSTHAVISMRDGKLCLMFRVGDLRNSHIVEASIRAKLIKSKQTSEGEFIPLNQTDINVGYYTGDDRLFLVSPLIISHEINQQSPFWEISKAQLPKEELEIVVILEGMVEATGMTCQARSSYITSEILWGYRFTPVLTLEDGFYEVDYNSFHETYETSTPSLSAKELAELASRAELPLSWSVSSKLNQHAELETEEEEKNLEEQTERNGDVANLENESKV
T1 sequence (Q92806 1-393): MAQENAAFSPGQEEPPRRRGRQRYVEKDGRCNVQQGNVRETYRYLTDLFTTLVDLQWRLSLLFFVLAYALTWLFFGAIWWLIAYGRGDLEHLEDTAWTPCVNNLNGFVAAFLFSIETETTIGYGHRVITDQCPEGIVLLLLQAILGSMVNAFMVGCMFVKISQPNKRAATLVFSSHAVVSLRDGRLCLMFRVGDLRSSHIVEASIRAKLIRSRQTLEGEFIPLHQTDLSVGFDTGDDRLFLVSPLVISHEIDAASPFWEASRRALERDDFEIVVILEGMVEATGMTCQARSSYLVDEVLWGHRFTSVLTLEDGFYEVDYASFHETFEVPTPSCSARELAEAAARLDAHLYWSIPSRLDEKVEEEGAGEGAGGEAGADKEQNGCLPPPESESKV
Experiment: Whole-cell voltage-clamp, GIRK2/3-expressing HEK-293 cells
Assay type: cell-based
Details: cell line GIRK2-3
From the text: Cell Line Construction and Cell Culture. HEK-293 cells co-expressing human GIRK1/2 and rat mGlu8 were generated as previously described (Niswender et al., 2008). A HEK-293 cell line (ATCC, Manassas, Va.) expressing human GIRK1 and human GIRK2 was constructed by transfecting HEK-293 cells with GIRK1 and GIRK2 (Origene, Rockville, Md.) cloned into the pBudCE4.1 vector (Life Technologies, Carlsbad, Calif.) using FuGene 6 (Promega, Madison, Wis.) transfection reagent. […]
A single-cell suspension of HEK-293 cells stably transfected with the appropriate ion channels were plated into TC-treated 35 mm polystyrene dishes at ˜15% confluence and incubated overnight in a 5% CO2 cell culture incubator at 37° C. […] Whole cell currents were recorded in 20K extracellular solution at −70 mV using a Pico 1 amplifier (Tecella, Foothill Ranch, Calif.) controlled by WINWCP 4.X (University of Strathclyde, Glasgow, Scotland, UK). […] One day after transfection, cells were plate into 35 mm polystyrene dishes, incubated and recorded as described above. […]
Voltage-clamp data were analyzed by converting current amplitudes to current density by dividing by each cell's membrane capacitance estimated from capacitance compensation. […]

Cc1cc(NC(=O)Nc2ccc(F)c(F)c2)n(-c2ccccc2)n1 [VU0456810, 1-(3,4-difluorophenyl)-3-(3-methyl-1-phenyl-1H-pyrazol-5-yl)urea]
EC50 Voltage Clamp: Inactive
